Measurements from patent US7807679B2, “Piperazine derivatives and their use in controlling pests” (Syngenta Crop Protection, Inc., priority 2004, dated 2010).

Legend:
[1] = system: Spodoptera littoralis (Egyptian Cotton Leafworm); test: Spodoptera littoralis cotton leaf disc spray test; type: in vivo; settings: foliar, 72 h, 200 ppm sprayed on cotton leaf discs, 5 L1 larvae, mortality, repellent effect, feeding behaviour, growth regulation 3 days after treatment
Description: Spodoptera littoralis (Egyptian Cotton Leafworm)
Cotton leaf discs were placed on agar in a 24-well microtiter plate and sprayed with test solutions at an application rate of 200 ppm. After drying, the leaf discs were infested with 5 L1 larvae. The samples were checked for mortality, repellent effect, feeding behaviour, and growth regulation 3 days after treatment (DAT). The following compounds gave at least 80% control of Spodoptera littoralis: • I-3, I-26, I-29, I-30, I-49, I-52, I-53, I-75, I-417, I-532, I-578, I-785, I-854, I-877, II-49, III-49, V-49, XII-49, XIV-26, XV-26, XXIV-2, XXIV-46, XXIV-90, XXIV-93, XXIV-94, XXV-26 and XXV-49.

[2] = system: Heliothis virescens (Tobacco Budworm); test: Heliothis virescens egg test on artificial diet; type: in vivo; settings: 96 h, 200 ppm by pipetting, eggs (0-24 h old) on artificial diet, egg mortality, larval mortality, growth regulation after 4 days
Method: Eggs (0-24 h old) were placed in 24-well microtiter plate on artificial diet and treated with test solutions at an application rate of 200 ppm by pipetting. After an incubation period of 4 days, samples were checked for egg mortality, larval mortality, and growth regulation. The following compounds gave at least 80% control of Heliothis virescen: • I-3, I-6, I-7, I-26, I-29, I-30, I-47, I-49, I-52, I-53, I-72, I-75, I-417, I-532, I-578, I-785, I-854, I-877, III-49, V-49, XII-49, XIV-26, XIV-49, XV-26, XVI-26, XVII-26, XXIV-2, XXIV-46, XXIV-90, XXIV-93, XXIV-94, XXV-2, XXV-26, XXV-49 and XXV-68.

[3] = system: Aedes aegypti (Yellow Fever Mosquito); test: Aedes aegypti larvae test in microtiter plates; type: in vivo; settings: 48 h, larvae (L2) with nutrition mixture, mortality and growth inhibition 2 days later
Description: 10-15 Aedes larvae (L2) together with a nutrition mixture are placed in 96-well microtiter plates. Test solutions at an application rate of 2 ppm are pipetted into the wells. 2 days later, insects were checked for mortality and growth inhibition. The following compounds gave at least 80% control of Aedes aegypti • I-3, I-26, I-29, I-30, I-49, I-52, I-53, I-72, I-75, I-76, III-49, III-118, XIV-26, XV-26, XXIV-2, XXIV-46, XXIV-90, XXIV-93, XXIV-94 and XXV-68.

[4] = system: Myzus persicae (Green Peach Aphid); test: Myzus persicae sunflower leaf disc spray test; type: in vivo; settings: foliar, 144 h, 200 ppm sprayed on sunflower leaf discs, aphid population of mixed ages, mortality after 6 DAT
Method: Sunflower leaf discs were placed on agar in a 24-well microtiter plate and sprayed with test solutions at an application rate of 200 ppm. After drying, the leaf discs were infested with an aphid population of mixed ages. After an incubation period of 6 DAT, samples were checked for mortality. The following compounds gave at least 80% control of Myzus persicae: • I-3, I-26, I-29, […], I-30, I-49, I-52, I-53, I-72, I-75, III-49, V-49, XXIV-46, XXIV-90 and XXIV-94.

Row | Structure (SMILES) | pest or weed control at 200 ppm [1] | pest or weed control at 200 ppm [2] | pest or weed control at 2 ppm [3] | pest or weed control at 200 ppm [4] | melting point
1 | O=C(Nc1ccc(F)cc1N1CCN(C/C=C/c2ccc(OC(F)(F)F)cc2)CC1)c1ccnc(Cl)c1 [Compound I-30, 2-chloro-N-(4-fluoro-2-{4-[(E)-3-(4-trifluoromethoxy-phenyl)-allyl]-piperazin-1-yl}-phenyl)-isonicotinamide] | ≥ 80% | ≥ 80% | ≥ 80% | ≥ 80% | –
2 | O=C(Nc1cc(Cl)cnc1N1CCN(C/C=C/c2ccc(Cl)cc2)CC1)c1ccnc(Cl)c1 [XXIV-90, 2-chloro-N-(5-chloro-2-{4-[(E)-3-(4-chloro-phenyl)-allyl]-piperazin-1-yl}-pyridin-3-yl)-isonicotinamide] | ≥ 80% | ≥ 80% | ≥ 80% | ≥ 80% | –
3 | O=C(Nc1c(Cl)cc(Cl)cc1N1CCN(C/C=C/c2ccc(Cl)cc2)CC1)c1ccnc(Cl)c1 [Example 10, 2-chloro-N-(2-{4-[(E)-3-(4-chloro-phenyl)-allyl]-piperazin-1-yl}-4,6-dichloro-phenyl)-isonicotinamide] | – | – | – | – | 79 to 80 °C
4 | O=C(Nc1ccc(Cl)cc1N1CCN(Cc2ccc(Cl)cc2)CC1)c1ccnc(Cl)c1 [Compound I-47, 2-Chloro-N-{4-chloro-2-[4-(4-chloro-benzyl)-piperazin-1-yl}-phenyl)-isonicotinamide] | – | ≥ 80% | – | – | –
5 | CN1CCN(c2cc(Cl)ccc2NC(=O)c2ccnc(Cl)c2)CC1 [Example 3, 2-Chloro-N-[4-chloro-2-(4-methyl-piperazin-1-yl)-phenyl]-isonicotinamide] | – | – | – | – | 118 to 120 °C
6 | O=C(Nc1ccccc1N1CCN(C/C=C/c2ccc(Cl)cc2)CC1)c1ccnc(Cl)c1 [Compound I-3, 2-chloro-N-(2-{4-[(E)-3-(4-chloro-phenyl)-allyl]-piperazin-1-yl}-phenyl)-isonicotinamide] | ≥ 80% | ≥ 80% | ≥ 80% | ≥ 80% | –
7 | Cc1nn(C)c(N2CCN(C/C=C/c3ccc(Cl)cc3)CC2)c1NC(=O)c1ccnc(Cl)c1 [Example 8, 2-Chloro-N-(5-{4-[(E)-3-(4-chloro-phenyl)-allyl]-piperazin-1-yl}-1,3-dimethyl-1H-pyrazol-4-yl)-isonicotinamide] | – | – | – | – | 85 to 88 °C
8 | O=C(Nc1ccccc1N1CCN(C/C=C/c2ccc(OC(F)(F)F)cc2)CC1)c1ccnc(Cl)c1 [Compound I-7, 2-chloro-N-(2-{4-[(E)-3-(4-trifluoromethoxy-phenyl)-allyl]-piperazin-1-yl}-phenyl)-isonicotinamide] | – | ≥ 80% | – | – | –
9 | O=C(Nc1ccc(F)cc1N1CCN(C/C=C/c2ccc(C(F)(F)F)cc2)CC1)c1ccnc(Cl)c1 [Compound I-29, 2-chloro-N-(4-fluoro-2-{4-[(E)-3-(4-trifluoromethyl-phenyl)-allyl]-piperazin-1-yl}-phenyl)-isonicotinamide] | ≥ 80% | ≥ 80% | ≥ 80% | ≥ 80% | –
10 | O=C(Nc1cc(Cl)cnc1N1CCN(C/C=C/c2ccc(C(F)(F)F)cc2)CC1)c1ccnc(Cl)c1 [XXIV-93, 2-chloro-N-(5-chloro-2-{4-[(E)-3-(4-trifluoromethyl-phenyl)-allyl]-piperazin-1-yl}-pyridin-3-yl)-isonicotinamide] | ≥ 80% | ≥ 80% | ≥ 80% | – | –
11 | O=C(Nc1cc(F)ccc1N1CCN(C/C=C/c2ccc(OC(F)(F)F)cc2)CC1)c1ccnc(Cl)c1 [Compound I-76, 2-chloro-N-(5-fluoro-2-{4-[(E)-3-(4-trifluoromethoxy-phenyl)-allyl]-piperazin-1-yl)-phenyl)-isonicotinamide] | – | – | ≥ 80% | – | –
12 | O=C(Nc1cc(Cl)cnc1N1CCN(C/C=C/c2ccc(OC(F)(F)F)cc2)CC1)c1ccnc(Cl)c1 [XXIV-94, 2-chloro-N-(5-chloro-2-{4-[(E)-3-(4-trifluoromethoxy-phenyl)-allyl]-piperazin-1-yl}-pyridin-3-yl)-isonicotinamide] | ≥ 80% | ≥ 80% | ≥ 80% | ≥ 80% | –
13 | O=C(Nc1ccc(F)cc1N1CCN(C/C=C/c2ccc(Cl)cc2)CC1)c1ccnc(Cl)c1 [Compound I-26, 2-chloro-N-(4-fluoro-2-{4-[(E)-3-(4-chloro-phenyl)-allyl]-piperazin-1-yl}-phenyl)-isonicotinamide] | ≥ 80% | ≥ 80% | ≥ 80% | ≥ 80% | –
14 | O=C(Nc1ccc(Cl)cc1N1CCN(C/C=C/c2ccc(C(F)(F)F)cc2)CC1)c1ccnc(Cl)c1 [Compound I-52, 2-chloro-N-(4-chloro-2-{4-[(E)-3-(4-trifluoromethyl-phenyl)-allyl]-piperazin-1-yl}-phenyl)-isonicotinamide] | ≥ 80% | ≥ 80% | ≥ 80% | ≥ 80% | –
15 | O=C(Nc1ccc(Cl)cc1N1CCN(C/C=C/c2ccc(OC(F)(F)F)cc2)CC1)c1ccnc(Cl)c1 [Compound I-53, 2-chloro-N-(4-chloro-2-{4-[(E)-3-(4-trifluoromethoxy-phenyl)-allyl]-piperazin-1-yl}-phenyl)-isonicotinamide] | ≥ 80% | ≥ 80% | ≥ 80% | ≥ 80% | –
16 | O=C(Nc1cc(F)ccc1N1CCN(C/C=C/c2ccc(Cl)cc2)CC1)c1ccnc(Cl)c1 [Compound I-72, 2-chloro-N-(5-fluoro-2-{4-[(E)-3-(4-chloro-phenyl)-allyl]-piperazin-1-yl}-phenyl)-isonicotinamide] | – | ≥ 80% | ≥ 80% | ≥ 80% | –
17 | O=C(Nc1ccc(Cl)cc1N1CCN(C/C=C/c2ccc(Cl)cc2)CC1)c1ccnc(Cl)c1 [Compound I-49, 2-chloro-N-(4-chloro-2-{4-[(E)-3-(4-chloro-phenyl)-allyl]-piperazin-1-yl}-phenyl)-isonicotinamide] | ≥ 80% | ≥ 80% | ≥ 80% | ≥ 80% | –
18 | O=C(Nc1cc(F)ccc1N1CCN(C/C=C/c2ccc(C(F)(F)F)cc2)CC1)c1ccnc(Cl)c1 [Compound I-75, 2-chloro-N-(5-fluoro-2-{4-[(E)-3-(4-trifluoromethyl-phenyl)-allyl]-piperazin-1-yl}-phenyl)-isonicotinamide] | ≥ 80% | ≥ 80% | ≥ 80% | ≥ 80% | –
19 | O=C(Nc1ccccc1N1CCN(C/C=C/c2ccc(C(F)(F)F)cc2)CC1)c1ccnc(Cl)c1 [Compound I-6, 2-chloro-N-(2-{4-[(E)-3-(4-trifluoromethyl-phenyl)-allyl]-piperazin-1-yl}-phenyl)-isonicotinamide] | – | ≥ 80% | – | – | –
20 | O=C(Nc1cccnc1N1CCN(C/C=C/c2ccc(Cl)cc2)CC1)c1ccnc(Cl)c1 [XXIV-2, 2-chloro-N-(2-{4-[(E)-3-(4-chloro-phenyl)-allyl]-piperazin-1-yl}-pyridin-3-yl)-isonicotinamide] | ≥ 80% | ≥ 80% | ≥ 80% | – | –
21 | O=C(Nc1ccc(Cl)nc1N1CCN(C/C=C/c2ccc(Cl)cc2)CC1)c1ccnc(Cl)c1 [XXIV-46, 2-chloro-N-(6-chloro-2-{4-[(E)-3-(4-chloro-phenyl)-allyl]-piperazin-1-yl}-pyridin-3-yl)-isonicotinamide] | ≥ 80% | ≥ 80% | ≥ 80% | ≥ 80% | –
